We go through 1 compound from US7786142B2, “Heterocyclic compounds as pSTAT3/IL-6 inhibitors” (Orchid Research Laboratories, Ltd., priority 2005, dated 2010).

The subject of one data set is HCT116 cells. The data set can be described thus: Anti-cancer screen (MTT), HCT116 cells. The class given is cell-based. The conditions noted are these: Homo sapiens, HCT-116, HCT116, 48 hours, concentrations tested 0.01-100 μM. In a few lines: (§1)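 Cells (5000/well) in DMEM with 10% FBS were treated for 48 hours with 0.01, 0.1, 1, 10 and 100 μM compound in triplicate. MTT read at 570 nm gave percent growth relative to untreated controls and pre-dose T0 wells, from which GI50, TGI and LC50 were derived.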

In the next data set the test system is MDAMB-231/U 251. The data set can be described thus: Anti-cancer screen (MTT), MDAMB-231/U 251 cells. The class given is cell-based. The conditions noted are these: MDAMB-231/U 251, 48 hours, concentrations tested 0.01-100 μM. In a few lines: as §1
The conditions of data set [1]: mouse, in vivo. The procedure:
All test compound/standard drugs were delivered by gavage in a volume of 10 ml/kg. Drugs were administered every day for single time to a period of 21 days. Control mice were treated with the drug solvent/vehicle. Tumor size is measured every alternate days and body weight is recorded daily.
• a) Tumor Volume Inhibition (TVI): A TVI value higher than 80% is indicative of active compounds. • b) T/C % is also another indicator for the activity. A reproducible 20% T/C is considered as therapeutically active. • c) Log Cell Kill (LCK): A LCK value greater than 1 is indicative of active compounds. • d) Relative Tumor Volume (RTV), Tumor Delay and % Tumor volume change are also considered as valuable additional parameters for assessment. • e) Toxic effects of drug treatment were assessed by Body Weight Loss % • f) Lethal toxicity was defined as any death in treated groups occurring before any control death. Mice were inspected daily for mortality and toxic clinical signs.

The next data set relates to NCIH460 cells. The data set can be described thus: Anti-cancer screen (MTT), NCIH460 cells. The class given is cell-based. The settings on record: Homo sapiens, NCI-H460, NCIH460, 48 hours, concentrations tested 0.01-100 μM. In a few lines:
as §1

For a further data set, the system named is IL-6. The data set can be described thus: IL-6 in culture supernatants of NCIH 460 cells (ELISA). In kind it is cell-based, Human. Here is the method:
Human Lung Cancer cell line (NCIH 460) is used for IL-6 measurement. 5000 cells/well were seeded in a 96 well plate and incubated in CO2 incubator at 37° C. for 24 hours. After 24 hours of incubation the medium from all wells were completed removed and added 100 μl of fresh DMEM containing 10% FCS. 100 μl of different concentrations of the drug were added and incubated for 5 hours in CO2 incubator at 37° C. After 5 hours of incubation the supernatants were collected and stored at −80° C. The concentration of IL-6 in the supernatant was measured using ELISA kit and the IC50 value of the compound was determined from the dose response curve, (See Table II).
Background: An ELISA detects its analyte on a solid surface through an enzyme-linked reagent.

[2] abbreviates: read-out: LC50 (the source's name).

For the compound `COc1ccc(CNC[C@H](O)COc2cccc3[nH]c4ccccc4c23)c(OC)c1` [Example 25, (2S)-1-(9H-carbazol-4-yloxy)-3-[(2,4-dimethoxybenzyl)amino]propan-2-ol], the 50% growth inhibitory concentration (GI50) (in general, the concentration giving 50% growth inhibition) was 5.6 µM in the data set with HCT116 cells, 13 µM with MDAMB-231/U 251 and 670 nM in the data set with NCIH460 cells. The IC (TGI) was 48 µM in the data set with HCT116 cells, 49 µM with MDAMB-231/U 251 and 55 µM in the data set with NCIH460 cells. In addition, the LC50 (concentration for 50% net cell kill relative to T0) in the data set with HCT116 cells came to 79 µM. Moreover, the CC50 was 81 µM in the data set on MDAMB-231/U 251 (setting [2]) and 68 µM in the data set with NCIH460 cells (setting [2]). For the same compound, the body weight loss result in data set [1] is on record as “no body weight loss was observed”. Testing at 0.1 µM with IL-6 (Homo sapiens, NCI-H460, 0.1 μM, NCIH 460, 5 hours) gave an inhibition of 36%. For the same compound, testing at 1 µM in the data set with IL-6 (Homo sapiens, NCI-H460, 1 μM, NCIH 460, 5 hours) gave an inhibition of 50.9%. The 50% inhibitory concentration (IC50) (in general, the concentration that inhibits the measured activity by half) in the data set with IL-6 (Homo sapiens, NCI-H460, NCIH 460, 5 hours, read-out: IL-6 Inhibition IC50) is 780 nM. In the data set on IL-6 (in words), the IL-6 inhibition result was “very good IL-6 inhibition”.
